Results taken from patent publication US6696494B2, “α-hydroxyarylbutanamine inhibitors of aspartyl protease” (Enanta Pharmaceuticals, Inc., priority 2001, dated 2004).

molecular target: HIV-1 protease (Human immunodeficiency virus type 1 group M subtype B, UniProt P04585); assay: Inhibition of microbial expressed viral protease (HIV-1 protease), method of Toth and Marshall; assay type: biochemical
Procedure: Biological Assay for Inhibition of Microbial Expressed Viral Protease
The inhibition constants against HIV-1 protease were measured using the method described by M. V. Toth and G. R. Marshall, Int. J. Peptide protein Res., 1990, 544. The method described M. W. Pennington et al., Peptides 1990, Gimet, E. and D. Andrew, Eds., Escom; Leiden, Netherlands (1990) may also be used. The potency is measured as IC50in μM. The person of skill would accept these tests as predictive of the compounds' utility in vivo to treat HIV infected patients.

**Q.** With COc1cccc(OC)c1OCC(=O)N[C@@H](Cc1ccccc1)[C@H](O)CCc1ccccc1C(=O)NC(C)(C)C [Example 001210] as the molecule, how does the IC50 read?
**A.** The IC50 was 0.1 to 10 µM.

**Q.** Which IC50 does the source give for Cc1cc([N+](=O)[O-])cc(C)c1OCC(=O)N[C@@H](Cc1ccccc1)[C@H](O)CCc1ccccc1C(=O)NC(C)(C)C [Example 001211] here?
**A.** Its IC50 is 0.1 to 10 µM.

**Q.** With COc1cccc(C)c1OCC(=O)N[C@@H](Cc1ccccc1)[C@H](O)CCc1ccccc1C(=O)NC(C)(C)C [Example 001213] as the molecule, how does the IC50 read?
**A.** The IC50 was under 0.1 µM.

**Q.** How did the IC50 turn out when CC(C)(C)NC(=O)c1ccccc1CC[C@@H](O)[C@H](Cc1ccccc1)NC(=O)COc1c(F)cccc1F [Example 001214] was run?
**A.** The IC50 was under 0.1 µM.

**Q.** How did the IC50 turn out when Cc1cccc(Cl)c1OCC(=O)N[C@@H](Cc1ccccc1)[C@H](O)CCc1ccccc1C(=O)NC(C)(C)C [Example 001215] was run?
**A.** The IC50 was under 0.1 µM.

**Q.** For Cc1cc(Br)cc(Cl)c1OCC(=O)N[C@@H](Cc1ccccc1)[C@H](O)CCc1ccccc1C(=O)NC(C)(C)C [Example 001216], which IC50 is on record?
**A.** The IC50 was 0.1 to 10 µM.

**Q.** For COc1cccc(F)c1OCC(=O)N[C@@H](Cc1ccccc1)[C@H](O)CCc1ccccc1C(=O)NC(C)(C)C [Example 001217], which IC50 is on record?
**A.** The IC50 was 0.1 to 10 µM.

**Q.** How did the IC50 turn out when Cc1cc(Br)cc(C)c1OCC(=O)N[C@@H](Cc1ccccc1)[C@H](O)CCc1ccccc1C(=O)NC(C)(C)C [Example 001218] was run?
**A.** The IC50 was under 0.1 µM.

**Q.** For CC(C)CC(O)C(=O)NC(Cc1ccccc1)C(O)CCc1ccccc1C(=O)NC(C)(C)C (stereo not shown) [Example 001219], which IC50 is on record?
**A.** Its IC50 is 0.1 to 10 µM.

**Q.** Which IC50 does the source give for CC(C)(C)NC(=O)c1ccccc1CC[C@@H](O)[C@H](Cc1ccccc1)NC(=O)COc1c(Cl)cc(Cl)cc1Cl [Example 001224] here?
**A.** The IC50 was under 0.1 µM.

**Q.** With Cc1cc(Br)c(OCC(=O)N[C@@H](Cc2ccccc2)[C@H](O)CCc2ccccc2C(=O)NC(C)(C)C)c(Br)c1 [Example 001225] as the molecule, how does the IC50 read?
**A.** Its IC50 is 0.1 to 10 µM.

**Q.** With CC(C)(C)NC(=O)c1ccccc1CC[C@@H](O)[C@H](Cc1ccccc1)NC(=O)COc1c(Br)cc(F)cc1Br [Example 001226] as the molecule, how does the IC50 read?
**A.** The IC50 was 0.1 to 10 µM.

**Q.** CC(C)(C)NC(=O)c1ccccc1CC[C@@H](O)[C@H](Cc1ccccc1)NC(=O)COc1ccc(F)c(F)c1F [Example 001227] was tested. Which IC50 did it give?
**A.** Its IC50 is 0.1 to 10 µM.

**Q.** For CC(C)(C)NC(=O)c1ccccc1CC[C@@H](O)[C@H](Cc1ccccc1)NC(=O)COC1CCCCC1 [Example 001228], which IC50 is on record?
**A.** Its IC50 is 0.1 to 10 µM.

**Q.** Which IC50 does the source give for CC1CCCCC1OCC(=O)NC(Cc1ccccc1)C(O)CCc1ccccc1C(=O)NC(C)(C)C (stereo not shown) [Example 001229] here?
**A.** The IC50 was 0.1 to 10 µM.

**Q.** CC1CCCC(C)C1OCC(=O)NC(Cc1ccccc1)C(O)CCc1ccccc1C(=O)NC(C)(C)C (stereo not shown) [Example 001230] was tested. Which IC50 did it give?
**A.** Its IC50 is 0.1 to 10 µM.

**Q.** CCC(CC)OCC(=O)N[C@@H](Cc1ccccc1)[C@H](O)CCc1ccccc1C(=O)NC(C)(C)C [Example 001231] was tested. Which IC50 did it give?
**A.** Its IC50 is 0.1 to 10 µM.

**Q.** How did the IC50 turn out when Cc1ccc(CC[C@@H](O)[C@H](Cc2ccccc2)NC(=O)COc2c(C)cccc2C)c(C(=O)NC(C)(C)C)c1 [Example 001237] was run?
**A.** Its IC50 is under 0.1 µM.

**Q.** How did the IC50 turn out when Cc1cccc(C)c1OCC(=O)N[C@@H](Cc1ccccc1)[C@H](O)CCc1cccc(F)c1C(=O)NC(C)(C)C [Example 001239] was run?
**A.** The IC50 was under 0.1 µM.

**Q.** Which IC50 does the source give for Cc1c(O)cccc1OCC(=O)N[C@@H](Cc1ccccc1)[C@H](O)CCc1ccccc1C(=O)NC(C)(C)C [Example 001246] here?
**A.** Its IC50 is under 0.1 µM.

**Q.** For Cc1cccc(C)c1OCC(=O)N[C@@H](Cc1ccccc1)[C@H](O)CCc1cccc(C)c1C(=O)NC(C)(C)C [Example 001249], which IC50 is on record?
**A.** Its IC50 is under 0.1 µM.

**Q.** For Cc1cc(CO)cc(C)c1OCC(=O)N[C@@H](Cc1ccccc1)[C@H](O)CCc1ccccc1C(=O)NC(C)(C)C [Example 001267], which IC50 is on record?
**A.** The IC50 was under 0.1 µM.

**Q.** How did the IC50 turn out when CC(C)(C)NC(=O)c1ccccc1CC[C@@H](O)[C@H](Cc1ccccc1)NC(=O)COc1cccnc1Cl [Example 001268] was run?
**A.** The IC50 was 0.1 to 10 µM.

**Q.** Which IC50 does the source give for Cc1cc(C(=O)N[C@@H](Cc2ccccc2)[C@H](O)CCc2ccccc2C(=O)NC(C)(C)C)cc(C)c1OCC(=O)O [Example 001278] here?
**A.** Its IC50 is 0.1 to 10 µM.

**Q.** Which IC50 does the source give for Cc1cc(C(=O)O)ccc1OCC(=O)N[C@@H](Cc1ccccc1)[C@H](O)CCc1ccccc1C(=O)NC(C)(C)C [Example 001279] here?
**A.** The IC50 was 0.1 to 10 µM.
